The values that follow come from US9758527B2, “Cyclohexene derivative, preparation method therefor, and pharmaceutical composition for preventing or treating metabolic diseases, containing same as active ingredient” (HYUNDAI PHARM CO., LTD., priority 2014, dated 2017).

The term EC50 denotes the midpoint of the concentration-response curve.

The target of this experiment is T1, G protein-coupled receptor 119 (GPR-119) (Mesocricetus auratus, UniProt A0A1U8CD06).
T1 construct: hamster-derived β-cells containing G protein-coupled receptor 119 (GPR-119), HIT-T15 cells; host or cells: HIT-T15 (hamster pancreatic β-cells)
T1 sequence (A0A1U8CD06 1-334): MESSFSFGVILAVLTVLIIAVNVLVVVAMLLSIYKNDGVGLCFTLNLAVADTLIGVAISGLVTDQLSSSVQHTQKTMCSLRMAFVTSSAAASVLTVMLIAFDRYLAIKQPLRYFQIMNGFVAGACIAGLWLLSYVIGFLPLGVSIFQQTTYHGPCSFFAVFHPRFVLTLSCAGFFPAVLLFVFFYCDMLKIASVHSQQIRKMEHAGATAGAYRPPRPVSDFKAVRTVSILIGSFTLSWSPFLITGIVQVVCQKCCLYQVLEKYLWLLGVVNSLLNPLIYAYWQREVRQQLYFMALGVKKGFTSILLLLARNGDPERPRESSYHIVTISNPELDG
The experiment can be described thus: Evaluation of cAMP activity in HIT-T15 cells (HTRF cAMP dynamic kit). The experiment is classed as cell-based, hamster. The settings on record: cAMP activation. On the procedure: To check whether the cyclohexene derivatives according to the present invention activate cyclic adenosine monophosphate (cAMP), experiments were carried out, as follows.
The HIT-T15 cells were plated on a 96-well plate at 60,000 cells per well. On the next day of plating, the cells were treated with a varying concentration of each of the example compounds according to the present invention, and incubated at 37° C. for an hour. In this case, each of the treated compounds was used at six concentrations, ranging from […], to treat the cells.
The cyclic adenosine monophosphate (cAMP) activity was measured according to the manufacturer's instruction using a cAMP dynamic kit commercially available from Cis Bio Inc. (Bedford, Mass.). The cells were lysed, and a level of cAMP was determined by a competitive immunoassay using D2-labeled cAMP and a cryptate-labeled anti-cAMP antibody. Fluorescence was read in Flex Station (Molecular Devices). […] Unlabeled cAMP in the cell lysate competed with the D2-labeled cAMP against the cryptate-labeled antibody. Since a decrease in the measured intensity of the FRET signals represents a level of cAMP in the cells, the cAMP activities of the compounds are calculated as a change in FRET signals by adjusting an amount of dimethyl sulfoxide (DMSO).

Where [1] appears, read: 1 h at 37° C., six concentrations, read-out: EC50.

Where two headings read alike, the source gives them in different places.

Turning to `CC(C)(C)OC(=O)N1CCC(COc2ccc(C3=CCC(C(=O)NC[C@@H](O)CO)CC3)cc2)CC1` (stereo partly drawn) [Example 4, tert-butyl 4-((4-(4-((R)-2,3-dihydroxypropylcarbamoyl)cyclohex-1-enyl)phenoxy)methyl)piperidine-1-carboxylate], the EC50 under setting [1] was 0.15 µM.
For the compound `CC(C)(C)OC(=O)N1CCC(COc2ccc(C3=CCC(C(=O)N4CCOCC4)CC3)cc2)CC1` (stereo not shown) [Example 7, tert-butyl 4-((4-(4-(morpholine-4-carbonyl)cyclohex-1-enyl)phenoxy)methyl)piperidine-1-carboxylate], the 50% effective concentration (EC50) under setting [1] came out at 0.013 µM and the EC50 (read-out: EC50 value) was not above 0.05 µM.
`CCc1cnc(N2CCC(COc3ccc(C4=CCC(C(=O)NC[C@H](C)O)CC4)cc3)CC2)nc1` (stereo partly drawn) [Example 136, 4-(4-((1-(5-ethylpyrimidin-2-yl)piperidin-4-yl)methoxy)phenyl)-N-((S)-2-hydroxypropyl)cyclohex-3-enecarboxamide]: under setting [1], the EC50 was found to be 0.062 µM.
Consider `C[C@@H](CO)NC(=O)C1CC=C(c2ccc(OCC3CCN(C(=O)OC(C)(C)C)CC3)cn2)CC1` (stereo partly drawn) [Example 11, tert-butyl 4-((6-(4-((S)-1-hydroxypropan-2-ylcarbamoyl)cyclohex-1-enyl)pyridin-3-yloxy)methyl)piperidine-1-carboxylate], for which the concentration for a half-maximal effect (EC50) under setting [1] was determined as 0.11 µM.
As to `CC(C)c1noc(N2CCC(COc3ccc(C4=CCC(C(=O)NCCC(=O)O)CC4)cc3F)CC2)n1` (stereo not shown) [Example 111, 3-(4-(3-fluoro-4-((1-(3-isopropyl-1,2,4-oxadiazol-5-yl)piperidin-4-yl)methoxy)phenyl)cyclohex-3-enecarboxamido)propanoic acid], the EC50 under setting [1] stood at 1.5 µM.
Consider `CC(C)c1noc(N2CCC(COc3ccc(C4=CCC(C(=O)N5CCSCC5)CC4)cc3)CC2)n1` (stereo not shown) [Example 74, (4-(4-((1-(3-isopropyl-1,2,4-oxadiazol-5-yl)piperidin-4-yl)methoxy)phenyl)cyclohex-3-enyl)(thiomorpholino)methanone], for which the EC50 by setting is: under setting [1], 0.0062 µM; (read-out: EC50 value) not above 0.05 µM.
For the compound `CC(C)c1noc(N2CCC(COc3ccc(C4=CCC(C(=O)NC[C@H](C)O)CC4)nc3)CC2)n1` (stereo partly drawn) [Example 39, N-((S)-2-hydroxypropyl)-4-(5-((1-(3-isopropyl-1,2,4-oxadiazol-5-yl)piperidin-4-yl)methoxy)pyridin-2-yl)cyclohex-3-enecarboxamide], the concentration giving a half-maximal response (EC50) under setting [1] came to 0.35 µM.
Take `CCc1cnc(N2CCC(COc3ccc(C4=CCC(C(=O)NC[C@@H](O)CO)CC4)cc3)CC2)nc1` (stereo partly drawn) [Example 12, N-((R)-2,3-dihydroxypropyl)-4-(4-((1-(5-ethylpyrimidin-2-yl)piperidin-4-yl)methoxy)phenyl)cyclohex-3-enecarboxamide]: the half-maximal effective concentration (EC50) under setting [1] came out at 0.08 µM.
Still for that read-out and setting: under `C[C@@H](CO)NC(=O)C1CC=C(c2ccc(OCC3CCN(C(=O)OC(C)(C)C)CC3)nc2)CC1` (stereo partly drawn) [Example 24, tert-butyl 4-((5-(4-((S)-1-hydroxypropan-2-ylcarbamoyl)cyclohex-1-enyl)pyridin-2-yloxy)methyl)piperidine-1-carboxylate] stands 0.26 µM.
Still for that read-out and setting: the same measure for `CC(C)(C)OC(=O)N1CCC(COc2ccc(C3=CCC(C(=O)N4CCN(CC5CC5)CC4)CC3)cc2)CC1` (stereo not shown) [Example 256, tert-butyl 4-((4-(4-(4-(cyclopropylmethyl)piperazine-1-carbonyl)cyclohex-1-enyl)phenoxy)methyl)piperidine-1-carboxylate]: 0.032 µM.
With `CCc1cnc(N2CCC(COc3ccc(C4=CCC(C(=O)N5CC[C@H](O)C5)CC4)cc3)CC2)nc1` (stereo partly drawn) [Example 135, (4-(4-((1-(5-ethylpyrimidin-2-yl)piperidin-4-yl)methoxy)phenyl)cyclohex-3-enyl)((S)-3-hydroxypyrrolidin-1-yl)methanone], the EC50 reads like this: under setting [1], 0.03 µM; (read-out: EC50 value) not above 0.05 µM.
In the case of `CC(C)c1noc(N2CCC(COc3ccc(C4=CCC(C(=O)NC[C@H](O)CO)CC4)cc3)CC2)n1` (stereo partly drawn) [Example 18, N-((S)-2,3-dihydroxypropyl)-4-(4-((1-(3-isopropyl-1,2,4-oxadiazol-5-yl)piperidin-4-yl)methoxy)phenyl)cyclohex-3-enecarboxamide], the EC50 under setting [1] worked out at 0.17 µM.
On the same count and under the same terms, the same measure for `CC(C)c1noc(N2CCC(COc3ccc(C4=CCC(C(=O)NCC(F)(F)F)CC4)cc3F)CC2)n1` (stereo not shown) [Example 92, 4-(3-fluoro-4-((1-(3-isopropyl-1,2,4-oxadiazol-5-yl)piperidin-4-yl)methoxy)phenyl)-N-(2,2,2-trifluoroethyl)cyclohex-3-enecarboxamide]: 0.064 µM.
In the case of `CC(C)(C)OC(=O)N1CCC(COc2ccc(C3=CCC(C(=O)N4CC=CC4)CC3)cc2)CC1` (stereo not shown) [Example 224, tert-butyl 4-((4-(4-(2,5-dihydro-1H-pyrrole-1-carbonyl)cyclohex-1-enyl)phenoxy)methyl)piperidine-1-carboxylate], the EC50 was 0.038 µM under setting [1] and not above 0.05 µM (read-out: EC50 value).
Taken in the same sequence, the figures for `CC(C)c1noc(N2CCC(COc3ccc(C4=CCC(C(=O)N5CCOCC5)CC4)cc3)CC2)n1` (stereo not shown) [Example 66, (4-(4-((1-(3-isopropyl-1,2,4-oxadiazol-5-yl)piperidin-4-yl)methoxy)phenyl)cyclohex-3-enyl)(morpholino)methanone] were 0.018 µM and not above 0.05 µM.
Regarding `CON=C1CN(C(=O)C2CC=C(c3ccc(OCC4CCN(c5nc(C(C)C)no5)CC4)cc3)CC2)C1` (stereo not shown) [Example 286, (4-(4-((1-(3-isopropyl-1,2,4-oxadiazol-5-yl)piperidin-4-yl)methoxy)phenyl)cyclohex-3-enyl)(3-(methoxyimino)azetidin-1-yl)methanone], the EC50 runs as follows: under setting [1], 0.037 µM; (read-out: EC50 value) not above 0.05 µM.
On to `CC(C)c1noc(N2CCC(COc3ccc(C4=CCC(C(=O)NCC(=O)N5CCC[C@@H]5C#N)CC4)cc3F)CC2)n1` (stereo partly drawn) [Example 122, N-(2-((R)-2-cyanopyrrolidin-1-yl)-2-oxoethyl)-4-(3-fluoro-4-((1-(3-isopropyl-1,2,4-oxadiazol-5-yl)piperidin-4-yl)methoxy)phenyl)cyclohex-3-enecarboxamide], for which the concentration giving a half-maximal response (EC50) under setting [1] came to 0.13 µM.
In the case of `CC(C)(C)OC(=O)N1CCC(COc2ccc(C3=CCC(C(=O)N4CC[C@@H](F)C4)CC3)cc2F)CC1` (stereo partly drawn) [Example 58, tert-butyl 4-((2-fluoro-4-(4-((R)-3-fluoropyrrolidine-1-carbonyl)cyclohex-1-enyl)phenoxy)methyl)piperidine-1-carboxylate], under “read-out: EC50 value”, the concentration for a half-maximal effect (EC50) was not above 0.05 µM.
As to `C[C@@H](CO)NC(=O)C1CC=C(c2ccc(OCC3CCN(C(=O)OC(C)(C)C)CC3)c(F)c2)CC1` (stereo partly drawn) [Example 59, tert-butyl 4-((2-fluoro-4-(4-((S)-1-hydroxypropan-2-ylcarbamoyl)cyclohex-1-enyl)phenoxy)methyl)piperidine-1-carboxylate], the concentration giving a half-maximal response (EC50) under setting [1] was determined as 0.078 µM.
Regarding `CC(C)(C)OC(=O)N1CCC(COc2ccc(C3=CCC(C(=O)N4CCC(=O)C4)CC3)cc2)CC1` (stereo not shown) [Example 265, tert-butyl 4-((4-(4-(3-oxopyrrolidine-1-carbonyl)cyclohex-1-enyl)phenoxy)methyl)piperidine-1-carboxylate], the EC50 runs as follows: under setting [1], 0.032 µM; (read-out: EC50 value) not above 0.05 µM.
Taken in the same sequence, the figures for `CCc1cnc(N2CCC(COc3ccc(C4=CCC(C(=O)N5CC[C@H](F)C5)CC4)cc3)CC2)nc1` (stereo partly drawn) [Example 160, (4-(4-((1-(5-ethylpyrimidin-2-yl)piperidin-4-yl)methoxy)phenyl)cyclohex-3-enyl)((S)-3-fluoropyrrolidin-1-yl)methanone] were 0.014 µM and not above 0.05 µM.
Taken in the same sequence, the figures for `CC(C)(C)OC(=O)N1CCC(COc2ccc(C3=CCC(C(=O)N4CC[C@@H](O)C4)CC3)cc2F)CC1` (stereo partly drawn) [Example 45, tert-butyl 4-((2-fluoro-4-(4-((R)-3-hydroxypyrrolidine-1-carbonyl)cyclohex-1-enyl)phenoxy)methyl)piperidine-1-carboxylate] were 0.025 µM and not above 0.05 µM.
Consider `CC(C)(C)OC(=O)N1CCC(COc2ccc(C3=CCC(C(=O)NC(CO)CO)CC3)cc2F)CC1` (stereo not shown) [Example 67, tert-butyl 4-((4-(4-(1,3-dihydroxypropan-2-ylcarbamoyl)cyclohex-1-enyl)-2-fluorophenoxy)methyl)piperidine-1-carboxylate], for which the concentration giving a half-maximal response (EC50) under setting [1] amounted to 0.06 µM.
Consider `CCc1cnc(N2CCC(COc3ccc(C4=CCC(C(=O)N5CCC(CO)CC5)CC4)cc3)CC2)nc1` (stereo not shown) [Example 165, (4-(4-((1-(5-ethylpyrimidin-2-yl)piperidin-4-yl)methoxy)phenyl)cyclohex-3-enyl)(4-(hydroxymethyl)piperidin-1-yl)methanone], for which the 50% effective concentration (EC50) under setting [1] turned out to be 0.007 µM and the EC50 (read-out: EC50 value) is not above 0.05 µM.
